{
  "source": "patent US20250282795A1",
  "about": "“EGFR Inhibitors in cancer treatment” (Celyn Therapeutics, Inc., priority 2022, published 2025)",
  "format_in_all_cases": "cell-based",
  "key": {"Ba/F3 (D770_N771insSVD)": {"system": "Ba/F3 (D770_N771insSVD)", "experiment": "Cellular growth inhibition assay (CellTiter-Glo), Ba/F3 (D770_N771insSVD)", "conditions": "Mus musculus, BaF3, 72 h; 3 days of incubation; read-out: Ba/F3 (D770_N771 insSVD) CC50", "description": "(§1) Example E. Cellular Growth Inhibition Assay\n(§2) Ba/F3(Empty vector) (Signosis), Ba/F3(Wild type) (Signosis), Ba/F3(L^858R+T790M) (Signosis), Ba/F3(A767_dupASV) (Signosis), Ba/F3(D770_N771insSVD) (Signosis), Ba/F3(H773_V774insNPH) (Signosis) were seeded at a density of 4000 cells per well in a CellBIND® 384-well Flat Clear Bottom Black Polystyrene Microplates (Coming, USA, Cat #3770) in 45 μl total volume of RPMI (PanEco, Cat #C330, Russia) with […] (HyClone, Cat #SV30160.03) and with 10 ng/ml rmIL-3 (RD systems, USA, Cat #403-ML-025) (for BaBF3(Empty vector)) and with 10 ng/ml rhEGF (ThermoFisher, USA, Cat #PHG0311L) (for BaCF3(Wild type)). 500× compounds solutions in DMSO (Sigma Cat #D2650) were prepared into Cmpnds plate (DiamondWell Plate, Axigen, Cat #P-384-120SQ-C—S) and DMSO only control was included. 1.l of 500× compounds (Cmpnds plate) was added to 49 µl of culture medium into Dilution plate (Diamond Well Plate, Axigen, Cat #P-384-120SQ-C—S), mixed and then 5 μl of 10× compounds solutions were transferred to cells followed by centrifugation at 100 g for 1 min. Final DMSO concentration was 0.2% o. After 3 days of incubation 10.l of CellTiter-Glo (Promega, CAT #G7572) were added to the cells, plate was centrifuged at 100 g for 1 min and luminescence signal was measured using Microplate Reader (CLARIOStar)."}, "[1]": {"experiment": "Cellular growth inhibition assay (CellTiter-Glo), Ba/F3 (Empty vector)", "conditions": "mouse, Ba/F3 cells with empty vector; Ba/F3 (Empty vector) with 10 ng/ml rmIL-3, 3 days of incubation", "description": "as §1, §2"}, "Ba/F3 (H773_V774insSVD)": {"system": "Ba/F3 (H773_V774insSVD)", "experiment": "Cellular growth inhibition assay (CellTiter-Glo), Ba/F3 (H773_V774insSVD)", "conditions": "Mus musculus, BaF3, 72 h; 3 days of incubation; read-out: Ba/F3 (H773_V774 insSVD) CC50"}, "Ba/F3 (A767_dupASV)": {"system": "Ba/F3 (A767_dupASV)", "experiment": "Cellular growth inhibition assay (CellTiter-Glo), Ba/F3 (A767_dupASV)", "conditions": "Mus musculus, BaF3, 72 h; 3 days of incubation; read-out: Ba/F3 (A767_dup ASV) CC50", "description": "as §1, §2"}, "Ba/F3 (L858R + T790M)": {"system": "Ba/F3 (L858R + T790M)", "experiment": "Cellular growth inhibition assay (CellTiter-Glo), Ba/F3 (L858R+T790M)", "conditions": "Mus musculus, BaF3, 72 h; 3 days of incubation", "description": "as §1, §2"}},
  "data": [
    {"smiles": "COc1c(F)cccc1Nc1c2[nH]c3c1C(=O)NCC3CC(=O)N[C@H](C)C(=O)NCCCOc1cnccc1-2", "note": "(stereo partly drawn) [Compound 141, (11R)-21-(3-fluoro-2-methoxyanilino)-11-methyl-6,7,8,9,11,12,14,14a,15,16-decahydro-18,20-(metheno)dipyrido[3,4-k: 4′,3′-o][1,5,8,13]oxatriazacyclohexadecine-10,13,17(19H)-trione]", "values": [
      {"measurement": "CC50", "setting": "Ba/F3 (D770_N771insSVD)", "result": "1 to 10", "unit": "µM"},
      {"measurement": "CC50 at 3 days", "setting": "[1]", "result": "> 10", "unit": "µM"},
      {"measurement": "CC50", "setting": "Ba/F3 (H773_V774insSVD)", "result": "> 10", "unit": "µM"},
      {"measurement": "CC50", "setting": "Ba/F3 (A767_dupASV)", "result": "0.1 to 1", "unit": "µM"},
      {"measurement": "CC50", "setting": "Ba/F3 (L858R + T790M)", "result": "> 10", "unit": "µM"}
    ]},
    {"smiles": "COc1c(F)cccc1Nc1c2[nH]c3c1C(=O)NCC3CC=CCN1CCC(CC1)COc1cnccc1-2", "note": "(stereo not shown) [Compound 135, 21-(3-fluoro-2-methoxyanilino)-6,7,8,9,14,14a,15,16-octahydro-11H-7,10-ethano-18,20-(metheno)dipyrido[3,4-b: 4′,3′-f][1,5,12]oxadiazacyclohexadecin-17(19H)-one]", "values": [
      {"measurement": "CC50", "setting": "Ba/F3 (D770_N771insSVD)", "result": "> 10", "unit": "µM"},
      {"measurement": "CC50 at 3 days", "setting": "[1]", "result": "> 10", "unit": "µM"},
      {"measurement": "CC50", "setting": "Ba/F3 (H773_V774insSVD)", "result": "> 10", "unit": "µM"},
      {"measurement": "CC50", "setting": "Ba/F3 (A767_dupASV)", "result": "> 10", "unit": "µM"},
      {"measurement": "CC50", "setting": "Ba/F3 (L858R + T790M)", "result": "> 10", "unit": "µM"}
    ]},
    {"smiles": "COc1c(F)cccc1Nc1c2[nH]c3c1C(=O)NCC3CC(=O)N1CC(CCOc3cnccc3-2)C1", "note": "(stereo not shown) [Compound 139, 19-(3-fluoro-2-methoxyanilino)-6,7,8,9,12,12a,13,14-octahydro-11H-8,10-methano-16,18-(metheno)dipyrido[3,4-b: 4′,3′-f][1,5,10]oxadiazacyclotetradecine-11,15(17H)-dione]", "values": [
      {"measurement": "CC50", "setting": "Ba/F3 (D770_N771insSVD)", "result": "1 to 10", "unit": "µM"},
      {"measurement": "CC50 at 3 days", "setting": "[1]", "result": "> 10", "unit": "µM"},
      {"measurement": "CC50", "setting": "Ba/F3 (H773_V774insSVD)", "result": "1 to 10", "unit": "µM"},
      {"measurement": "CC50", "setting": "Ba/F3 (A767_dupASV)", "result": "0.1 to 1", "unit": "µM"},
      {"measurement": "CC50", "setting": "Ba/F3 (L858R + T790M)", "result": "> 10", "unit": "µM"}
    ]},
    {"smiles": "COc1c(F)cccc1Nc1c2[nH]c3c1C(=O)NCC3CCCCN1CCC(CC1)COc1cnccc1-2", "note": "(stereo not shown) [Compound 136, 21-[(3-Fluoro-2-methoxyphenyl)amino]-6,7,8,9,12,13,14,14a,15,16-decahydro-11H-7,10-ethano-18,20-methenodipyrido[3,4-b:4′,3′-f][1,5,12]oxadiazacyclohexadecin-17(19H)-one]", "values": [
      {"measurement": "CC50", "setting": "Ba/F3 (D770_N771insSVD)", "result": "> 10", "unit": "µM"},
      {"measurement": "CC50 at 3 days", "setting": "[1]", "result": "> 10", "unit": "µM"},
      {"measurement": "CC50", "setting": "Ba/F3 (H773_V774insSVD)", "result": "> 10", "unit": "µM"},
      {"measurement": "CC50", "setting": "Ba/F3 (A767_dupASV)", "result": "1 to 10", "unit": "µM"},
      {"measurement": "CC50", "setting": "Ba/F3 (L858R + T790M)", "result": "> 10", "unit": "µM"}
    ]},
    {"smiles": "COc1c(F)cccc1Nc1c2[nH]c3c1C(=O)NCC3CCCCCOc1cnccc1-2", "note": "(stereo not shown) [Compound 101, 1^3-((3-Fluoro-2-methoxyphenyl)amino)-1^4,1^5,1^6,1^7-tetrahydro-l^1H-3-oxa-1(2,7)-pyrrolo[3,2-c]pyridina-2(4,3)-pyridinacyclooctaphan-1^4-one]", "values": [
      {"measurement": "CC50", "setting": "Ba/F3 (D770_N771insSVD)", "result": "0.1 to 1", "unit": "µM"},
      {"measurement": "CC50 at 3 days", "setting": "[1]", "result": "> 10", "unit": "µM"},
      {"measurement": "CC50", "setting": "Ba/F3 (H773_V774insSVD)", "result": "0.1 to 1", "unit": "µM"},
      {"measurement": "CC50", "setting": "Ba/F3 (A767_dupASV)", "result": "0.01 to 0.1", "unit": "µM"},
      {"measurement": "CC50", "setting": "Ba/F3 (L858R + T790M)", "result": "1 to 10", "unit": "µM"}
    ]},
    {"smiles": "COc1c(F)cccc1Nc1c2[nH]c3c1C(=O)NC[C@@H]3CCCN1CCC[C@@H]1COc1cnccc1-2", "note": "[Compound 167, (12aR)-20-[(3-fluoro-2-methoxyphenyl)amino]-1,2,12a,13,14,15,17,18,19,19a-decahydro-12H-4,6-methenodipyrido[3,4-h:4′,3′-l]pyrrolo[2,1-c][1,4,10]oxadiazacyclotridecin-3(5H)-one]", "values": [
      {"measurement": "CC50", "setting": "Ba/F3 (D770_N771insSVD)", "result": "0.1 to 1", "unit": "µM"},
      {"measurement": "CC50 at 3 days", "setting": "[1]", "result": "> 10", "unit": "µM"},
      {"measurement": "CC50", "setting": "Ba/F3 (H773_V774insSVD)", "result": "0.1 to 1", "unit": "µM"},
      {"measurement": "CC50", "setting": "Ba/F3 (A767_dupASV)", "result": "0.01 to 0.1", "unit": "µM"},
      {"measurement": "CC50", "setting": "Ba/F3 (L858R + T790M)", "result": "1 to 10", "unit": "µM"}
    ]},
    {"smiles": "COc1c(F)cccc1Nc1c2[nH]c3c1C(=O)NC[C@@H]3CCCN1CC[C@@H](COc3cnccc3-2)C1", "note": "(stereo in doubt) [Compound 162, 20-[(3-Fluoro-2-methoxyphenyl)amino]-6,7,8,9,11,12,13,13a,14,15-decahydro-7,10-methano-17,19-methenodipyrido[3,4-b:4′,3′-f][1,5,11]oxadiazacyclopentadecin-16(18H)-one]", "values": [
      {"measurement": "CC50", "setting": "Ba/F3 (D770_N771insSVD)", "result": "> 10", "unit": "µM"},
      {"measurement": "CC50 at 3 days", "setting": "[1]", "result": "> 10", "unit": "µM"},
      {"measurement": "CC50", "setting": "Ba/F3 (H773_V774insSVD)", "result": "> 10", "unit": "µM"},
      {"measurement": "CC50", "setting": "Ba/F3 (A767_dupASV)", "result": "> 10", "unit": "µM"},
      {"measurement": "CC50", "setting": "Ba/F3 (L858R + T790M)", "result": "> 10", "unit": "µM"}
    ]},
    {"smiles": "COc1c(F)cccc1Nc1c2[nH]c3c1C(=O)NCC3CCCCCCNCCOc1cnccc1-2", "note": "(stereo not shown) [Compound 164, 21-(3-fluoro-2-methoxyanilino)-6,7,8,9,10,11,12,13,14,14a,15,16-dodecahydro-18,20-(metheno)dipyrido[3,4-k: 4′,3′-o][1,4,13]oxadiazacyclohexadecin-17(19H)-one]", "values": [
      {"measurement": "CC50", "setting": "Ba/F3 (D770_N771insSVD)", "result": "0.01 to 0.1", "unit": "µM"},
      {"measurement": "CC50 at 3 days", "setting": "[1]", "result": "> 10", "unit": "µM"},
      {"measurement": "CC50", "setting": "Ba/F3 (H773_V774insSVD)", "result": "0.1 to 1", "unit": "µM"},
      {"measurement": "CC50", "setting": "Ba/F3 (A767_dupASV)", "result": "0.01 to 0.1", "unit": "µM"},
      {"measurement": "CC50", "setting": "Ba/F3 (L858R + T790M)", "result": "1 to 10", "unit": "µM"}
    ]}
  ]
}
